Measured values taken from patent US10167283B2, “β-lactamase inhibitors and uses thereof” (priority 2015, dated 2019).
Structures can show the parent of a compound that is named as a salt. Where two headings read alike, the source gives them in different places.

How the values were obtained:
[1] = Pharmacokinetics in SD rats (iv); format: in vivo, SD rat; conditions: male, plasma; for half-life / clearance: SD, rat, iv, 1 mg/kg; for clearance: read-out: Cl—obs (converted); for Vd / AUC(0-t): SD rat, iv 1 mg/kg; for Vd: apparent volume of distribution, read-out: Vss—obs; for AUC(0-t): area under the curve 0→t
Experimental: Experimental Example 1: Pharmacokinetics Experiments of the Compound of the Present Invention in Rats Test animals: 3 male SD rats, bodyweight 200-250 g for each animal. Test samples were administrated via intravenous push (iv), dosage of administration was 1 mg/kg, volume of administration was 2 mL/kg. Collecting time points: iv: after administration 0.083 […]. At each time point, about 100 μL of whole blood was sampled via caudal vein, added to K2EDTA anti-coagulative tube, centrifuged in a refrigerated centrifuge under 8000 rpm for 6 min to separate plasma, and the plasma was stored in -80° C. refrigerator. Plasma (20 μL) was taken and placed in a 96-well deep-well plate, and internal standard solution (300 μL) was added, subjected to vortex for 5 min, then centrifuged under 12000 rpm for 5 min, and then supernatant (200 μL) was taken and subjected to vortex for 3 min; to be analyzed by LC-MS/MS. Plasma (30 μL) was taken and placed in 1.5 mL EP tube, and internal standard solution (300 μL) was added, subjected to vortex for 5 min, then centrifuged under 12000 rpm for 5 min, and then supernatant (200 μL) was taken and subjected to vortex for 3 min; to be analyzed by LC-MS/MS. Plasma (30 μL) was taken and placed in a 96-well deep-well plate, and internal standard solution (200 μL) was added, subjected to vortex for 5 min, then centrifuged under 4000 rpm for 20 min, and then supernatant (100 μL) was taken and water (100 μL) was added, and subjected to vortex homogeneously; to be analyzed by LC-MS/MS.

[2] = tested on: Enterobacter cloacae BAA-2341 (KPC); assay: In vitro antibacterial activity, agar dilution MIC; format: cell-based; conditions: BAA2341; Table 2; BAA-2341 Enterobacter cloacae, KPC; read-out: MIC
Source text: (§1) Experimental strains: all experimental standard bacterial strains for enzyme production were purchased from ATCC, and the clinically separated CRE strain was purchased from Southwest Hospital of the Third Military Medical University.
(§2) Experimental Method: Agar dilution method, referring to M100-S23: Performance Standards for Antimicrobial Susceptibility Testing: Twenty-Third Informational Supplement (Clinical And Laboratory Standards Institute, 2013). Minimal inhibitory concentration (MIC, μg/mL) was calculated.

[3] = tested on: Enterobacter hormaechei BAA-2082 (KPC); assay: In vitro antibacterial activity, agar dilution MIC; format: cell-based; conditions: BAA2082; Table 2; BAA-2082 Enterobacter hormaechei, KPC; read-out: MIC
Source text: as §1, §2

[4] = tested on: Escherichia coli BAA-196 (TEM-10); assay: In vitro antibacterial activity, agar dilution MIC; format: cell-based; conditions: TEM-10, read-out: MIC
Source text: as §1, §2

[5] = tested on: Escherichia coli BAA-2340 (KPC); assay: In vitro antibacterial activity, agar dilution MIC; format: cell-based; conditions: BAA2340, Table 2, BAA-2340 Escherichia coli
Source text: as §1, §2

[6] = tested on: Escherichia coli BAA-2452 (NDM-1); assay: In vitro antibacterial activity, agar dilution MIC; format: cell-based; conditions: NDM-1, read-out: MIC
Source text: as §1, §2

[7] = tested on: Escherichia coli BAA-2523 (OXA-48); assay: In vitro antibacterial activity, agar dilution MIC; format: cell-based; conditions: OXA-48, read-out: MIC
Source text: as §1, §2

[8] = tested on: Klebsiella oxytoca ATCC-51983 (SHV-5); assay: In vitro antibacterial activity, agar dilution MIC; format: cell-based; conditions: ATCC51983; Table 2; ATCC-51983 Klebsiella oxytoca, SHV-5; read-out: MIC
Source text: as §1, §2

[9] = tested on: Klebsiella pneumoniae BAA-1900 (KPC); assay: In vitro antibacterial activity, agar dilution MIC; format: cell-based; conditions: KPC, read-out: MIC
Source text: as §1, §2

[10] = tested on: Klebsiella pneumoniae BAA-2146 (NDM-1); assay: In vitro antibacterial activity, agar dilution MIC; format: cell-based; conditions: NDM-1, read-out: MIC
Source text: as §1, §2

[11] = tested on: Klebsiella pneumoniae BAA-2524 (OXA-48); assay: In vitro antibacterial activity, agar dilution MIC; format: cell-based; conditions: BAA2524; Table 2; BAA-2524 Klebsiella pneumoniae, OXA-48; read-out: MIC
Source text: as §1, §2

[12] = tested on: Enterobacter cloacae 7498ecl-299 (ESBLs, AmpC); assay: In vitro antibacterial activity on clinically separated CRE strain, agar dilution MIC; format: cell-based; conditions: Table 3, 7498ecl-299 Enterobacter cloacae
Source text: as §1, §2

[13] = tested on: Escherichia coli 7438eco-639 (NDM, ESBLs); assay: as above; format: cell-based; conditions: Table 3, 7438eco-639 Escherichia coli
Source text: as §1, §2

[14] = tested on: Klebsiella pneumoniae 7450kpn-597 (KPC, ESBLs); assay: as above; format: cell-based; conditions: Table 3, 7450kpn-597 Klebsiella pneumoniae
Source text: as §1, §2

[15] = tested on: Klebsiella pneumoniae 7463kpn-610 (ESBLs); assay: as above; format: cell-based
Source text: as §1, §2

AmpC = target: T1, AmpC (UniProt P05364); assay: β-lactamase inhibition, Nitrocefin hydrolysis; format: biochemical; conditions: Nitrocefin 0.1 mM
T1 construct: The concentration of purchased β-lactamases mother liquor was 1 mg/mL, and the mother liquor was dissolved in 50% glycerol
Experimental: Nitrocefin, a kind of cephalosporin antibiotics, is sensitive to most of β-lactamases, and changes in color after being hydrolyzed. The hydrolysis rate of Nitrocefin was measured by real-time recording corresponding absorbance of reaction system. β-Lactamase inhibitors could inhibit hydrolysis of the enzymes to Nitrocefin, and reduce hydrolysis rate. By measuring reaction rates in the same reaction system under different inhibitor concentrations, the IC50 (half maximal inhibitory concentration) values of inhibitors were calculated.
Nitrocefin was dissolved in DMSO to form a solution with concentration of 2 mM, which was sub-packaged and stored at −20° C. The concentration of purchased β-lactamases mother liquor was 1 mg/mL, and the mother liquor was dissolved in 50% glycerol. A part of mother liquor was taken and diluted by 1000 times in reaction solution, sub-packaged and stored at ˜20° C.
The compounds to be tested were dissolved in DMSO to form a mother liquor with concentration of 10 mM. If not used that day, the mother liquor was stored at −20° C. Its test final concentrations were: 100 μM, 25 μM, 6.25 μM, 1.563 μM, 390.6 nM, 97.66 nM, 24.41 nM, 6.10 nM, 1.53 nM, 0.381 nM, 0.095 nM.

[16] = BAA196, Table 2, BAA-196 Escherichia coli
[17] = BAA2452, Table 2, BAA-2452 Escherichia coli
[18] = BAA2523, Table 2, BAA-2523 Escherichia coli
[19] = BAA1900, Table 2, BAA-1900 Klebsiella pneumoniae
[20] = BAA2146, Table 2, BAA-2146 Klebsiella pneumoniae
[21] = Table 3, 7463kpn-610 Klebsiella pneumoniae
[22] = Experiment 1, enzyme 0.4 nM, read-out: IC50 Type C AmpC

Structure (SMILES)	half-life [1]	clearance [1]	Vd [1]	AUC(0-t) [1]	MIC [2]	MIC [3]	MIC [4, 16]	MIC [5]	MIC [6, 17]	MIC [7, 18]	MIC [8]	MIC [9, 19]	MIC [10, 20]	MIC [11]	MIC [12]	MIC [13]	MIC [14]	MIC [15, 21]	IC50 (AmpC; [22])	other results
NC(=O)[C@@H]1CC[C@@H]2CN1C(=O)N2OS(=O)(=O)O [AVI sodium salt, Avibactam, reference compound]	24.6 min	14.9 mL/min/kg	0.535 L/kg	1140 ng·h/mL	> 8 µg/mL	> 8 µg/mL	> 8 µg/mL	8 µg/mL	> 8 µg/mL	8 µg/mL	> 8 µg/mL	> 8 µg/mL	> 8 µg/mL	> 8 µg/mL	> 8 µg/mL	8 µg/mL	> 8 µg/mL	8 µg/mL	101 nM	MIC ([4]; BAA196, first Table 4, BAA-196 Escherichia coli): 16 µg/mL; MIC ([6]; BAA2452, first Table 4, BAA-2452 Escherichia coli): 16 µg/mL; MIC ([7]; BAA2523, first Table 4, BAA-2523 Escherichia coli): 16 µg/mL; MIC ([9]; BAA1900, first Table 4, BAA-1900 Klebsiella pneumoniae): 16 µg/mL; MIC ([10]; BAA2146, first Table 4, BAA-2146 Klebsiella pneumoniae): 8 µg/mL; MIC ([15]; first Table 4, 7463kpn-610 Klebsiella pneumoniae): 32 µg/mL
O=C(NC1CCNCC1)[C@@H]1CC[C@@H]2CN1C(=O)N2OS(=O)(=O)O [MK-7655, reference compound]	23.4 min	16.7 mL/min/kg	0.409 L/kg	1020 ng·h/mL	> 16 µg/mL	> 16 µg/mL	> 16 µg/mL	> 16 µg/mL	> 16 µg/mL	> 16 µg/mL	> 16 µg/mL	> 16 µg/mL	> 16 µg/mL	> 16 µg/mL	> 8 µg/mL	> 8 µg/mL	> 8 µg/mL	> 8 µg/mL	49.5 nM	
O=C(NC1CC2(CNC2)C1)[C@@H]1CC[C@@H]2CN1C(=O)N2OS(=O)(=O)O [Compound 2, (2S,5R)-2-((2-azaspiro[3.3]heptan-6-yl)carbamoyl)-7-oxo-1,6-diazabicyclo[3.2.1]octan-6-yl hydrogen sulfate]	44.4 min	6.67 mL/min/kg	0.261 L/kg	2500 ng·h/mL	2 µg/mL	2 µg/mL	1 µg/mL	0.5 µg/mL	1 µg/mL	1 µg/mL	2 µg/mL	1 µg/mL	2 µg/mL	2 µg/mL	2 µg/mL	2 µg/mL	2 µg/mL	2 µg/mL		IC50 (AmpC; read-out: IC50 AmpC, Experiment 2, enzyme 1.6 nM): 17.4 nM; IC50 (AmpC; read-out: IC50 Type C AmpC, Experiment 1, enzyme 0.4 nM): 32.6 nM
